According to patent publication US20250011792A1, “IRAP INHIBITORS FOR USE IN THE TREATMENT OF INFLAMMATORY DISEASES” (INSTITUT NATIONAL DE LA SANTÉ ET DE LA RECHERCHE MÉDICALE, priority 2021, published 2025):

Tests used:
IRAP [1] = molecular target: T1, IRAP (Mus musculus, UniProt Q8C129); test: Intracellular flow cytometry staining of IRAP expression after HFI-419 treatment; type: cell-based; conditions: starting from 24 h of treatment, data not shown
T1 construct: endogenous in cells; host or cells: primary mouse mast cells (BMMC / peritoneal cell-derived mast cells) from wt mice
T1 sequence (Q8C129 1-1025): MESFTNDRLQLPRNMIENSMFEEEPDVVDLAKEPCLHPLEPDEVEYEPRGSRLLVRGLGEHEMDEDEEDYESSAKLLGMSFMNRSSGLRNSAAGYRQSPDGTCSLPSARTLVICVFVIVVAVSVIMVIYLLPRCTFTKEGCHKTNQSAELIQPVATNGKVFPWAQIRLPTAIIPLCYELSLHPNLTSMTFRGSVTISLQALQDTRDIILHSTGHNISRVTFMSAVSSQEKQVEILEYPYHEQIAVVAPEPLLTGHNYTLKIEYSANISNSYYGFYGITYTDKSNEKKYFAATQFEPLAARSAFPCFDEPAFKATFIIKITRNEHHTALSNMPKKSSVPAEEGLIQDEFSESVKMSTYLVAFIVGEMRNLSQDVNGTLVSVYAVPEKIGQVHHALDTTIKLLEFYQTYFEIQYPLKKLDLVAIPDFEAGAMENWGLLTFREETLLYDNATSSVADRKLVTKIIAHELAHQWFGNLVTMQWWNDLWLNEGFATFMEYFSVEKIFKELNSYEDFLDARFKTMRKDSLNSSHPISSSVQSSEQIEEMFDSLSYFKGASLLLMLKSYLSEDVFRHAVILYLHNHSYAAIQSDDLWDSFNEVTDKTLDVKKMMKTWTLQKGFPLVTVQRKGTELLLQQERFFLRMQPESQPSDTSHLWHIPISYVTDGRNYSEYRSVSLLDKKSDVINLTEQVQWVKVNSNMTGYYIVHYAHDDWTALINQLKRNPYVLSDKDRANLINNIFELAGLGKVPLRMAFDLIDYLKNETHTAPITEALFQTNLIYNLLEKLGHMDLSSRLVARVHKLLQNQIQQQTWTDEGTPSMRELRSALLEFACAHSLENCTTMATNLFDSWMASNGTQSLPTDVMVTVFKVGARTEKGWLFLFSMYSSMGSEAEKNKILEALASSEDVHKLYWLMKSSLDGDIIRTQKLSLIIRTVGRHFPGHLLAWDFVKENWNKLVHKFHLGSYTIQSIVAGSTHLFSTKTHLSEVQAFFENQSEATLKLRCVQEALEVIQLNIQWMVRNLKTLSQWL
Method: (§1) For TNF-α surface staining, PCMCs were stimulated with 1 μM ionomycin/10 nM PMA or 100 ng/ml LPS at 37° C. for 4 h in the presence of TAPI-1, washed with ice-cold PBS, and incubated at 4° C. with Fcblock (Miltenyi) followed by fluorochrome-conjugated CD117, FcεRI and TNF-α antibodies diluted in PBS-1% BSA. Intracellular staining of cytokines, IRAP and VAMP3 was performed using the BD intracellular staining kit and suitable species-specific fluorescent secondary antibodies (Life technologies).
(§2) Vehicle or inhibitor at a dose of 1 μmol/kg was administered intravenously at 24 h and 15 min prior to the ear challenge. […] We therefore hypothesized that in addition to blocking its catalytic activity, HI-419 may also affect the stability of IRAP.

VAMP3 = test: Intracellular flow cytometry staining of VAMP3 expression after HFI-419 treatment; type: cell-based, mouse; conditions: starting from 24 h of treatment, data not shown
Method: as §1, §2

mast cells = test: Cytokine secretion by mast cells treated with IRAP inhibitors for 24 h before ionomycin/PMA activation; type: cell-based, mouse; conditions: mast cells treated for 24 h prior to ionomycin/PMA activation; data not shown
Method: PCMCs were stimulated with 1 uM ionomycin/10 nM PMA or 100 ng/ml LPS at 37° C. for 6 h for cytokine secretion or with ionomycin/PMA or 10 ug/ml 48/80 for 30 min for histamine measurement.
(§3) Supernatants were collected and histamine was quantified using the Histamine Dynamic HTRF kit (Cisbio). TNF-α, IL-6, or IL-10 were quantified using specific cytokine ELISA kits. Kits were used according to the manufacturer's instructions.
Considering the aminopeptidase function of TRAP, we wondered if its catalytic activity was required for efficient cytokine secretion. To test this, we treated mast cells with the IRAP inhibitors HFI-419, 4u 55 and 22b (a gift from E. Stratikos) for 24 h prior to ionomycin/PMA activation.

IRAP wt mice = test: Mouse ear challenge with arachidonic acid, cytokines quantified in ear tissue homogenates; type: in vivo; conditions: 1 μmol/kg intravenously at 24 h and 15 min prior to ear challenge; ear tissue homogenates normalized to total protein; FIG. 3
Method: IRAP wt mice were injected i.v. with 6 μg HI-419 or vehicle 24 h and 15 min prior to ear challenge. Cytokine concentrations were quantified in ear tissue homogenates and normalized to total protein concentration.
Twenty microliters arachidonic acid (AA) (30 mg/ml in acetone) were applied to the inner and outer surface of one mouse ear, whereas the other ear was left untreated.
One hour after AA application, mice were sacrificed and ears were collected. The ear biopsies were dissociated using the pre-set “Protein” protocol of gentleMACS™ Octo Dissociator (Milteniy Biotec) in 800 μl ice-cold homogenization buffer [(PBS containing 0.4M NaCl, 0.05% Tween-20, 10 mM EDTA and protease inhibitor cocktail complete (Roche)]. The homogenates were cleared by 10 min centrifugation at 5000×g, and the total protein concentration determined in a BCA assay. Histamine or cytokines in the supernatant were quantified as described below.
as §3, §2

wt cells (mast cells) = test: TNF-α secretion in the presence of endocytosis inhibitors; type: cell-based, mouse; conditions: wt versus IRAPko cells; data not shown
IRAP [2] = test: Subcellular localization of IRAP under endocytosis inhibition after LPS activation; type: cell-based, mouse; conditions: after three hours of LPS activation; data not shown

CCOC(=O)C1=C(NC(C)=O)Oc2cc(O)ccc2C1c1cccnc1 (racemic) [HFI-419, (±)-Ethyl-2-acetamido-7-hydroxy-4-(pyridin-3-yl)-4H-chromene-3-carboxylate]
expression level of IRAP (IRAP [1]): decreased expression levels
expression level of IRAP (IRAP [1]; listed as HI-419): reduced
expression level of VAMP3 (VAMP3): decreased expression levels
inhibition of IRAP-dependent cytokine secretion in vitro (mast cells): significant inhibition
IL-6 secretion in challenged ear versus vehicle-treated animals (IRAP wt mice): significantly less
IL-10 secretion in challenged ear versus vehicle-treated animals (IRAP wt mice): unaffected
TNF-α secretion in challenged ear versus vehicle-treated animals (IRAP wt mice): significantly less

CS(=O)(=O)N1CCN(Cc2cc3nc(-c4cccc5[nH]ncc45)nc(N4CCOCC4)c3s2)CC1 [GDC-0941]
TNF-α secretion (wt cells (mast cells)): reduce TNF-α secretion specifically in wt cells

O=C(N/N=C/c1ccc(O)c(O)c1)c1cc2ccccc2cc1O [dynasore]
TNF-α secretion (wt cells (mast cells)): reduce TNF-α secretion specifically in wt cells
IRAP subcellular localization (re-internalization) (IRAP [2]): strong plasma membrane staining
